Results as given in patent publication US20190307732A1, “METHODS OF TREATING MITOCHONDRIAL AND METABOLIC DISORDERS” (Abraxis Bioscience, LLC, priority 2016, published 2019).

Test system: S6 phosphorylation
Experiment: Inhibition of S6 phosphorylation (pS6) in IMR90 fibroblast lysates
Type: cell-based
Conditions: Homo sapiens, IMR-90; IMR90 fibroblasts; dose of 1 ng/mL; FIG. 2
Procedure: IMR90 fibroblasts were administered varying doses of nab-sirolimus or rapamycin. Cell lysates were used to determine inhibition of S6 phosphorylation. Presence of vimentin. S6, and phosphorylated S6 (pS6) was measured.

SMILES: CO[C@H]1C[C@@H]2CC[C@@H](C)[C@@](O)(O2)C(=O)C(=O)N2CCCC[C@H]2C(=O)O[C@H]([C@H](C)C[C@@H]2CC[C@@H](O)[C@H](OC)C2)CC(=O)[C@H](C)/C=C(\C)[C@@H](O)[C@@H](OC)C(=O)[C@H](C)C[C@H](C)/C=C/C=C/C=C/1C [rapamycin]
- inhibition at 0.001 µg/mL: 100%
